Test results: ChEMBL document CHEMBL1201862, “PubChem BioAssay data set” (2004)
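Interpolation was linear, between the two tested concentrations surrounding the appropriate level; five concentrations were tested over 48 hours in 96-well plates. GI50 is the concentration that inhibits growth by half.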 Active and inactive are the calls of the source. Cut-off read from the data, not from the text of the source: active = GI50 up to about 1.1 µM and inactive = higher.

How the values were obtained:
Experiment in all cases: inhibition of tumour cell growth, NCI panel, 48 h
[1] = test system: UO-31
[2] = test system: Malme-3M
[3] = test system: OVCAR-8
[4] = test system: A549
[5] = test system: COLO 205
[6] = test system: SF-268
[7] = test system: MOLT-4
[8] = test system: MDA-MB-435
[9] = test system: NCI-H226
[10] = test system: MDA-N
[11] = test system: A498
[12] = test system: SW-620
[13] = test system: SK-MEL-2
[14] = test system: SK-MEL-28
[15] = test system: HT-29
[16] = test system: NCI/ADR-RES
[17] = test system: CCRF-CEM
[18] = test system: M14
[19] = test system: SNB-75

`O=C(CSc1nnc(-c2ccccn2)s1)N/N=C/c1ccccc1` was tested, and the GI50 [1] was 39.4 µM (inactive), the GI50 [2] was 97.7 µM (inactive) and the GI50 [3] was > 100 µM (inactive). For the same molecule, the GI50 [4] was > 100 µM (inactive), the GI50 [5] was > 100 µM (inactive) and the GI50 [6] was 48.9 µM (inactive). The GI50 [7] was 63.5 µM (inactive), the GI50 [8] was > 100 µM (inactive) and the GI50 [9] was > 100 µM (inactive). For the same molecule, the GI50 [10] was > 100 µM (inactive), the GI50 [11] was > 100 µM (inactive) and the GI50 [12] was > 100 µM (inactive). The GI50 [13] was > 100 µM (inactive), the GI50 [14] was > 100 µM (inactive) and the GI50 [15] was > 100 µM (inactive). The GI50 [16] was > 100 µM (inactive), the GI50 [17] was > 100 µM (inactive) and the GI50 [18] was > 100 µM (inactive). The GI50 [19] was 3.03 µM (inactive).
`NC(=O)C(Nc1ccc(Cl)cc1)c1cc2cc(Br)ccc2nc1Cl` (centres undefined) was tested, and the GI50 [1] was > 50 µM (inactive), the GI50 [2] was > 50 µM (inactive) and the GI50 [3] was > 50 µM (inactive). For the same molecule, the GI50 [4] was 30.2 µM (inactive), the GI50 [5] was > 50 µM (inactive) and the GI50 [6] was > 50 µM (inactive). The GI50 [7] was 19.5 µM (inactive), the GI50 [8] was 32.7 µM (inactive) and the GI50 [9] was > 50 µM (inactive). The GI50 [10] was 43.7 µM (inactive), the GI50 [11] was > 50 µM (inactive) and the GI50 [12] was 34.8 µM (inactive). The GI50 [13] was > 50 µM (inactive), the GI50 [14] was 48 µM (inactive) and the GI50 [15] was > 50 µM (inactive). The GI50 [16] was > 50 µM (inactive), the GI50 [17] was 23.8 µM (inactive) and the GI50 [18] was > 50 µM (inactive). The GI50 [19] was > 50 µM (inactive).
`CCN(CC)c1ccc(NC(=S)NN(C)C)cc1` was tested, and the GI50 [1] was > 10 µM (inactive), the GI50 [2] was > 10 µM (inactive) and the GI50 [3] was > 10 µM (inactive). The GI50 [4] was > 10 µM (inactive), the GI50 [5] was > 10 µM (inactive) and the GI50 [6] was > 10 µM (inactive). For the same molecule, the GI50 [7] was > 10 µM (inactive), the GI50 [8] was > 10 µM (inactive) and the GI50 [9] was > 10 µM (inactive). For the same molecule, the GI50 [10] was > 10 µM (inactive), the GI50 [11] was > 10 µM (inactive) and the GI50 [12] was > 10 µM (inactive). For the same molecule, the GI50 [13] was > 10 µM (inactive), the GI50 [14] was > 10 µM (inactive) and the GI50 [15] was > 10 µM (inactive). The GI50 [16] was > 10 µM (inactive), the GI50 [17] was > 10 µM (inactive) and the GI50 [18] was > 10 µM (inactive). The GI50 [19] was > 10 µM (inactive).
`COc1cc2c(cc1C[N+](C)(C)CSc1ccccc1)-c1ccccc1CC2` was tested, and the GI50 [1] was 15.2 µM (inactive), the GI50 [2] was 1.71 µM (inactive) and the GI50 [3] was 3.9 µM (inactive). For the same molecule, the GI50 [4] was 19 µM (inactive), the GI50 [5] was 1.75 µM (inactive) and the GI50 [6] was 5.32 µM (inactive). For the same molecule, the GI50 [7] was 2.33 µM (inactive), the GI50 [8] was 3.18 µM (inactive) and the GI50 [9] was 9.02 µM (inactive). The GI50 [10] was 1.77 µM (inactive), the GI50 [11] was 18.5 µM (inactive) and the GI50 [12] was 10.4 µM (inactive). The GI50 [13] was 2 µM (inactive), the GI50 [14] was 4.31 µM (inactive) and the GI50 [15] was 2.25 µM (inactive). For the same molecule, the GI50 [16] was 37.5 µM (inactive), the GI50 [17] was 3.64 µM (inactive) and the GI50 [18] was 2.07 µM (inactive). The GI50 [19] was 1.19 µM (inactive).
For `O=C1N[C@H]2c3c(Cl)sc(Cl)c3C(=O)[C@H]2O1`, the GI50 [1] was 19.1 µM (inactive), the GI50 [2] was 10.1 µM (inactive) and the GI50 [3] was 4.31 µM (inactive). For the same molecule, the GI50 [4] was 36.8 µM (inactive), the GI50 [5] was 14 µM (inactive) and the GI50 [6] was 17 µM (inactive). The GI50 [7] was 2.01 µM (inactive), the GI50 [8] was 14.3 µM (inactive) and the GI50 [9] was 17.9 µM (inactive). The GI50 [10] was 24 µM (inactive), the GI50 [11] was 20.2 µM (inactive) and the GI50 [12] was 2.84 µM (inactive). The GI50 [13] was 24 µM (inactive), the GI50 [14] was 6.79 µM (inactive) and the GI50 [15] was 4.38 µM (inactive). For the same molecule, the GI50 [16] was 15.5 µM (inactive), the GI50 [17] was 2.58 µM (inactive) and the GI50 [18] was 9.82 µM (inactive). For the same molecule, the GI50 [19] was 19.1 µM (inactive).
`CS(=O)(=O)c1nc(-c2cc3c(c(S(C)(=O)=O)n2)CCCC3)cc2c1CCCC2` was tested, and the GI50 [1] was 0.048 µM (active), the GI50 [2] was > 100 µM (inactive) and the GI50 [3] was > 35.4 µM (inactive). For the same molecule, the GI50 [4] was > 100 µM (inactive), the GI50 [5] was > 100 µM (inactive) and the GI50 [6] was 11.8 µM (inactive). For the same molecule, the GI50 [7] was > 100 µM (inactive), the GI50 [8] was > 100 µM (inactive) and the GI50 [9] was > 100 µM (inactive). The GI50 [10] was > 100 µM (inactive), the GI50 [11] was > 100 µM (inactive) and the GI50 [12] was > 100 µM (inactive). The GI50 [13] was > 54.3 µM (inactive), the GI50 [14] was > 100 µM (inactive) and the GI50 [15] was > 100 µM (inactive). The GI50 [16] was > 64.3 µM (inactive), the GI50 [17] was > 100 µM (inactive) and the GI50 [18] was > 100 µM (inactive). The GI50 [19] was 6.75 µM (inactive).
In the case of `Cc1c2ccccc2c(C2C3C(=O)N(c4cccc5ccccc45)C(=O)C3ON2Cc2ccc(CC(N)=O)cc2)c2ccccc12` (centres undefined), the GI50 [1] is reported as 24.7 µM (inactive), the GI50 [2] is reported as 28.6 µM (inactive) and the GI50 [3] is reported as 22.4 µM (inactive). For the same molecule, the GI50 [4] was 16.3 µM (inactive), the GI50 [5] was 7.78 µM (inactive) and the GI50 [6] was 23.6 µM (inactive). The GI50 [7] was 8.24 µM (inactive), the GI50 [8] was 17.9 µM (inactive) and the GI50 [9] was 13.4 µM (inactive). The GI50 [10] was 11.5 µM (inactive), the GI50 [11] was 35.6 µM (inactive) and the GI50 [12] was 20.3 µM (inactive). The GI50 [13] was 10.8 µM (inactive), the GI50 [14] was > 50 µM (inactive) and the GI50 [15] was 10.2 µM (inactive). For the same molecule, the GI50 [16] was 39.7 µM (inactive), the GI50 [17] was 14.7 µM (inactive) and the GI50 [18] was 15 µM (inactive). The GI50 [19] was 9.55 µM (inactive).
`N#Cc1c(-c2ccc([N+](=O)[O-])cc2)cc(-c2ccc(Nc3ccnc4cc(Cl)ccc34)cc2)nc1N` was tested, and the GI50 [1] was 26.5 µM (inactive), the GI50 [2] was 21.5 µM (inactive) and the GI50 [3] was 2.19 µM (inactive). For the same molecule, the GI50 [4] was 3.98 µM (inactive), the GI50 [5] was 25.5 µM (inactive) and the GI50 [6] was 14.9 µM (inactive). The GI50 [7] was 1.81 µM (inactive), the GI50 [8] was 3.35 µM (inactive) and the GI50 [9] was > 72.1 µM (inactive). The GI50 [10] was 3.52 µM (inactive), the GI50 [11] was 26.2 µM (inactive) and the GI50 [12] was > 21.7 µM (inactive). The GI50 [13] was 14.7 µM (inactive), the GI50 [14] was 6.25 µM (inactive) and the GI50 [15] was 2.71 µM (inactive). For the same molecule, the GI50 [16] was 4.12 µM (inactive), the GI50 [17] was 1.11 µM (active) and the GI50 [18] was 21.1 µM (inactive). For the same molecule, the GI50 [19] was 11.4 µM (inactive).
With `c1ccc2c(c1)N=c1ccccc1=P21c2ccccc2Nc2ccccc21` the GI50 [1] was 7.1 µM (inactive), the GI50 [2] was 0.242 µM (active) and the GI50 [3] was 0.521 µM (active). For the same molecule, the GI50 [4] was 0.232 µM (active), the GI50 [5] was 0.129 µM (active) and the GI50 [6] was 0.614 µM (active). For the same molecule, the GI50 [7] was 0.3 µM (active), the GI50 [8] was 0.39 µM (active) and the GI50 [9] was 0.577 µM (active). The GI50 [10] was 0.379 µM (active), the GI50 [11] was 0.581 µM (active) and the GI50 [12] was 0.405 µM (active). For the same molecule, the GI50 [13] was 0.256 µM (active), the GI50 [14] was 0.986 µM (active) and the GI50 [15] was 0.0724 µM (active). For the same molecule, the GI50 [16] was 76 µM (inactive), the GI50 [17] was 0.174 µM (active) and the GI50 [18] was 0.518 µM (active). The GI50 [19] was 0.246 µM (active).
In the case of `c1nc(NCCc2c[nH]cn2)c2nc[nH]c2n1`, the GI50 [1] is reported as > 100 µM (inactive), the GI50 [2] is reported as > 100 µM (inactive) and the GI50 [3] is reported as > 100 µM (inactive). The GI50 [4] was > 100 µM (inactive), the GI50 [5] was > 100 µM (inactive) and the GI50 [6] was > 100 µM (inactive). For the same molecule, the GI50 [7] was > 100 µM (inactive), the GI50 [8] was > 100 µM (inactive) and the GI50 [9] was 91.6 µM (inactive). The GI50 [10] was > 100 µM (inactive), the GI50 [11] was > 100 µM (inactive) and the GI50 [12] was > 100 µM (inactive). The GI50 [13] was > 100 µM (inactive), the GI50 [14] was > 100 µM (inactive) and the GI50 [15] was > 100 µM (inactive). The GI50 [16] was > 100 µM (inactive), the GI50 [17] was > 100 µM (inactive) and the GI50 [18] was > 100 µM (inactive). The GI50 [19] was 64.3 µM (inactive).
For `C=CC(C)(C)n1cc(C2=C3OC(=O)C(c4cn(C(C)(C)C=C)c5ccccc45)=C3OC2=O)c2ccccc21`, the GI50 [1] was > 100 µM (inactive), the GI50 [2] was > 100 µM (inactive) and the GI50 [3] was > 100 µM (inactive). For the same molecule, the GI50 [4] was > 100 µM (inactive), the GI50 [5] was > 100 µM (inactive) and the GI50 [6] was > 100 µM (inactive). For the same molecule, the GI50 [7] was > 100 µM (inactive), the GI50 [8] was > 100 µM (inactive) and the GI50 [9] was > 100 µM (inactive). The GI50 [10] was > 100 µM (inactive), the GI50 [11] was > 100 µM (inactive) and the GI50 [12] was > 100 µM (inactive). For the same molecule, the GI50 [13] was > 100 µM (inactive), the GI50 [14] was > 100 µM (inactive) and the GI50 [15] was > 100 µM (inactive). The GI50 [16] was > 100 µM (inactive), the GI50 [17] was > 100 µM (inactive) and the GI50 [18] was > 100 µM (inactive). For the same molecule, the GI50 [19] was > 100 µM (inactive).
